“Also recorded” adds a separate entry of the source.
Columns and labels:
[1] = tested on: TEAD/YAP dependent transcription; experiment: TEAD4 luciferase reporter assay; type: cell-based, human
Protocol: Cells were plated at 2×10^4 cells/well in 24 well plates, unless otherwise stated, 48 hours before collection and treated or genetically manipulated as described. Firefly and renilla luciferase activities were assayed with the dual luciferase assay system (Promega, Madison Wis., USA), as directed, and firefly luciferase activity was normalized to renilla luciferase activity. Firefly and renilla luminescence were measured with the TD-20e Luminometer (Turner).

[2] = tested on: MDA-MB-231; experiment: Clonogenic cell proliferation assay, MDA-MB-231; type: cell-based, human; conditions: 10 μM; MDA-MB-231, p53 DNA-contact mutation
Protocol: (§1) For clonogenic assay, cells were plated in triplicate at 1×10^3 cells in 6-well plates. Cells were treated or genetically manipulated as described. After 10 to 14 days, colonies were stained with 1% crystal violet in ethanol and photographed.

[3] = tested on: SK-BR-3; experiment: Clonogenic cell proliferation assay, SK-BR-3; type: cell-based, human; conditions: 10 μM; SK-BR-3, p53 conformational mutation
Protocol: as §1

[4] = tested on: tumor lines with p53 DNA-contact mutations; experiment: Clonogenic cell proliferation assay, p53 DNA-contact mutant tumor lines; type: cell-based, human
Protocol: as §1

[5] = target: ROCK1 (Homo sapiens, UniProt Q13464); conditions: read-out: reported ICD50 for inhibition of ROCK1; cited from earlier work
[6] = target: ROCK2 (Homo sapiens, UniProt O75116); conditions: read-out: reported ICD50 for inhibition of ROCK2; cited from earlier work
[7] = tested on: tumor lines expressing p53 conformational mutations; experiment: Clonogenic cell proliferation assay, p53 conformational mutant tumor lines; type: cell-based, human; conditions: for inhibition of proliferation: single agent, concentration not given
Protocol: as §1

[8] = tested on: SK-LMS-1; experiment: Clonogenic cell proliferation assay, SK-LMS-1; type: cell-based, human; conditions: SK-LMS-1, p53 conformational mutation; concentration not given
Protocol: as §1

[9] = tested on: MDA-MB-468; experiment: Clonogenic cell proliferation assay, MDA-MB-468; type: cell-based, human; conditions: MDA-MB-468, p53-DNA contact tumor line
Protocol: as §1

[10] = tested on: HCC-193; experiment: Clonogenic cell proliferation assay, HCC-193; type: cell-based, human; conditions: HCC-193, p53-DNA contact tumor line
Protocol: as §1

[11] = tested on: HCC-1395; experiment: Clonogenic cell proliferation assay, HCC-1395; type: cell-based, human; conditions: HCC-1395, p53 conformational mutant line
Protocol: as §1

[12] = tested on: tumor lines harboring mutations in Hippo pathway core components; experiment: Proliferation of tumor lines with Hippo pathway core component lesions; type: cell-based; conditions: tumor cells with lesions in Hippo pathway core components
Protocol: as §1

[13] = tested on: non-tumorigenic cells; experiment: Proliferation of non-tumorigenic cells; type: cell-based; conditions: FIG. 7
Protocol: as §1

[14] = tested on: TEAD endogenous target gene expression; experiment: Quantitative real-time PCR of TEAD endogenous target genes; type: cell-based, human; conditions: p53 DNA-contact mutant tumor lines
Protocol: Total RNA was extracted from cells using QIAshredder (Qiagen, Valencia, Calif., USA) and RNeasy Mini kit (Qiagen) following the manufacturer's instructions. First-strand cDNA synthesis was performed using Superscript II reverse transcriptase (Invitrogen, Carlsbad, Calif., USA) according to the manufacturer's instructions. Quantitative PCR was carried out using the ViiA™ 7 Real-Time PCR System (Life Technologies) using the FastStart SYBR Green Master mix (Roche, 04673492001). Primers were as follows: PCR was performed in 384 well plates using 10 μl volumes under the following conditions: 95° C. for 15 min, followed by 40 cycles of 94° C. for 15 sec, 61° C. for 30 sec, and 72° C. for 30 sec. Specificity was verified by a dissociation curve. Results were analyzed with ViiA7 RUO software (Life Technologies).

[15] = tested on: MCF10A cells; experiment: Anchorage-independent growth assay in soft agar; type: cell-based; conditions: FIG. 4C
Protocol: Growth in soft agar was determined by seeding 2.5×10^3 MCF10A cells in 1 ml of growth media containing 0.3% agar (BD 214050) on top of 1 ml of 0.48% agar in 35-mm dishes. Cells were fed every 4 days for 3 weeks with 0.2 mL of growth medium. Colonies were stained with 1% crystal violet in ethanol and photographed. Colony density was measured using Image J. Assays were conducted in triplicate.

[16] = single agent, concentration not given

ROCK1, sequence (Q13464 whole entry): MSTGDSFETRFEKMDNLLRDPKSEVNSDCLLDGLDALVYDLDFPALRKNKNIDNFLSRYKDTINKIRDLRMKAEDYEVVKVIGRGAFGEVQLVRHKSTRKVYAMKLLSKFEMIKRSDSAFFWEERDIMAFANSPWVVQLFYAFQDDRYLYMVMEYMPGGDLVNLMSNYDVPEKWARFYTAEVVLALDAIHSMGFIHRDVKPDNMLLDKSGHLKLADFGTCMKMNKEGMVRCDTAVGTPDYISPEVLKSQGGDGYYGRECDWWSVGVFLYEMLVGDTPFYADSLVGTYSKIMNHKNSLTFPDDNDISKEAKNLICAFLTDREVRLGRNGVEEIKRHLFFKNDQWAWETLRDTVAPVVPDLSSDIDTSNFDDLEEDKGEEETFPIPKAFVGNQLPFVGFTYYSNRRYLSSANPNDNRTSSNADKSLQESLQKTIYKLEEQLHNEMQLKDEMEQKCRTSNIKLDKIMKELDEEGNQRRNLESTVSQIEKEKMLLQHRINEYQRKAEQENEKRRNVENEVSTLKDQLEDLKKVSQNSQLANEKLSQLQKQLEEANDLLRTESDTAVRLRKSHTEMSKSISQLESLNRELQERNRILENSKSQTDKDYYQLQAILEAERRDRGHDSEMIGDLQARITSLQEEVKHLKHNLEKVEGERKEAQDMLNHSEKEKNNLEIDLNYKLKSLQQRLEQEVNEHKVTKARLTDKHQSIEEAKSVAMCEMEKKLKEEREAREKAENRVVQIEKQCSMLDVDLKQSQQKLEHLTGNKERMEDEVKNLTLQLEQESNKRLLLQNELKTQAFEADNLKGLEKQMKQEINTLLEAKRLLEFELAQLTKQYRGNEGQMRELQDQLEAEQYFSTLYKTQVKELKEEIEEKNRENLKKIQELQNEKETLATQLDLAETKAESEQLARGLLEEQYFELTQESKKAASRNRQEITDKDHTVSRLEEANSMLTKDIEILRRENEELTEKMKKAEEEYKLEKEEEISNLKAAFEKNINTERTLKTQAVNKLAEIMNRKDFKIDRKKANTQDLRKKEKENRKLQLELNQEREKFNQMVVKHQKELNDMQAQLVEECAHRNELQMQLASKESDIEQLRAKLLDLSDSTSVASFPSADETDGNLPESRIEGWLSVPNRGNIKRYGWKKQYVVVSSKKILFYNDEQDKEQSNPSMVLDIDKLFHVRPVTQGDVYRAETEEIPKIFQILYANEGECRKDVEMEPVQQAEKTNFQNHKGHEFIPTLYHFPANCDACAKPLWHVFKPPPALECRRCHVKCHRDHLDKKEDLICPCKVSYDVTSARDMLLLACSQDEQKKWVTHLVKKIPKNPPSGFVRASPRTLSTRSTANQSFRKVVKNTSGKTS
ROCK2, sequence (O75116 whole entry): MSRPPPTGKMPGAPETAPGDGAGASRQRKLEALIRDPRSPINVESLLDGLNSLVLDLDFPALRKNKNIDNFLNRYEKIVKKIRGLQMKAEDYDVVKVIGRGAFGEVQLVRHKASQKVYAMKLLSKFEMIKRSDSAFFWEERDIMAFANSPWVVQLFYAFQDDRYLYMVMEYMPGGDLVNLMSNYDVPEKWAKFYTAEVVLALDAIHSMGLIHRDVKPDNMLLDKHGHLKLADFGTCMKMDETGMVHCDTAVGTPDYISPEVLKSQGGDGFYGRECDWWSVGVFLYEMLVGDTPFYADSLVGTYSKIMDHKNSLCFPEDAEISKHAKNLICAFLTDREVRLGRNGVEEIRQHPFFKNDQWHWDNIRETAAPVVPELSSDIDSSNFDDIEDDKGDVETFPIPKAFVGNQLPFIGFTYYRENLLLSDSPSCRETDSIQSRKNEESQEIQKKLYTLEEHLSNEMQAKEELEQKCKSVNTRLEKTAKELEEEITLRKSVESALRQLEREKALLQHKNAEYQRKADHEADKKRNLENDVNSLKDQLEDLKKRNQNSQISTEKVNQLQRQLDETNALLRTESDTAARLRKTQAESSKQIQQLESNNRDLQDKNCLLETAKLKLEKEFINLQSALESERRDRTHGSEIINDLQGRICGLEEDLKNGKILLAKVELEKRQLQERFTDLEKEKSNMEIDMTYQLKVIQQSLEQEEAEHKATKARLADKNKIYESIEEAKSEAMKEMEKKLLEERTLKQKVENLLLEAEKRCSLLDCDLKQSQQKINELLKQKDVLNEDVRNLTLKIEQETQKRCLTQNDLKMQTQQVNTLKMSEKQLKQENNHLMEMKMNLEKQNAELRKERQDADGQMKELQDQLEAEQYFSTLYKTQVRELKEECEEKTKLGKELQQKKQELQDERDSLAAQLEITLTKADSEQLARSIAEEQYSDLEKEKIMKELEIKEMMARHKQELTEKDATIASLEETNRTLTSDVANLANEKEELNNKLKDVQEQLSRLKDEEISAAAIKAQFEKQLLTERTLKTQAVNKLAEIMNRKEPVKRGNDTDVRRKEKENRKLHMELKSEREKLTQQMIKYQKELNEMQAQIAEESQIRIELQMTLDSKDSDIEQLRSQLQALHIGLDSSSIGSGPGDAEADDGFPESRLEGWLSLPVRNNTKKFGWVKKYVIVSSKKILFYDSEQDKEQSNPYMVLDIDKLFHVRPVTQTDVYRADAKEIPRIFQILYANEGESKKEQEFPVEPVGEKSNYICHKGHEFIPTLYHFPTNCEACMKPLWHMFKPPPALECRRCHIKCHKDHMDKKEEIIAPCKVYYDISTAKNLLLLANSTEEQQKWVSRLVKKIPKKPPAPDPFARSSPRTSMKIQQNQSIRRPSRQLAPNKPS

In the case of O=S(=O)(c1cccc2cnccc12)N1CCCNCC1 [Fasudil], the “inhibition of TEAD/YAP dependent transcription (TEAD reporter activity)” value ([1]; 10 μM, MDA-MB-231, FIG. 5A) is reported as “little if any detectable inhibition; also recorded: lack of effect”, the effect on proliferation [2] is reported as “no effect” and the effect on proliferation [3] is reported as “no effect”.

For Cc1cncc2cccc(S(=O)(=O)N3CCCN(C(=O)CN)C[C@@H]3C)c12 [Glycyl-H-1152], the “inhibition of TEAD/YAP dependent transcription” value ([1]; 1 μM, MDA-MB-231, FIG. 5A) was “marked inhibition”, the inhibition of proliferation ([4]; 1 μM) was “strikingly and specifically inhibited proliferation” and the “concentration for specific inhibition of proliferation, lower than Y-27632” value ([4]; relative to Y-27632) was 10 fold. For the same compound, the IC50 [5] was 6 nM and the IC50 [6] was 11.8 nM.

For Oc1nc(-c2ccc(C(F)(F)F)cc2)nc2c1CSCC2 [XAV939], the inhibition of proliferation [4, 16] was “antagonize the proliferation”, the inhibition of proliferation [7] was “neither XAV939 nor Y-27632 inhibits proliferation” and the inhibition of proliferation [8] was “had no effect on the proliferation”. For the same compound, the inhibition of proliferation [9] was “able to inhibit the proliferation”, the inhibition of proliferation [10] was “able to inhibit the proliferation” and the inhibition of proliferation [11] was “had no effect on the proliferation”. For the same compound, the “effect on growth / proliferation” value [12] was “inhibits proliferation” and the inhibition of proliferation [13] was “neither XAV939 nor Y-27632 inhibits proliferation”.

For C[C@@H](N)[C@H]1CC[C@H](C(=O)Nc2ccncc2)CC1 [Y-27632], the “effect on TEAD reporter” value ([1]; p53 DNA-contact mutant tumor lines, FIG. 4A) was “antagonized”, the “effect on TEAD endogenous target gene expression” value [14] was “antagonized” and the “inhibition of colony formation / proliferation” value ([4]; 10-50 uM, 3 different p53 contact mutant tumor cells, FIG. 5B) was “almost complete inhibition of colony formation; also recorded: specific inhibition of proliferation”. The inhibition of proliferation [4, 16] was “specifically inhibiting the proliferation; also recorded: specifically inhibit the proliferation; also recorded: antagonize the proliferation; also recorded: specifically inhibited proliferation”, the “inhibition of colony formation” value ([7]; even at 100 μM, FIG. 5B) was “no detectable inhibition of colony formation” and the inhibition of proliferation [7] was “neither XAV939 nor Y-27632 inhibits proliferation”. The “growth inhibitory effects on any of the other tumor cells analyzed” value ([7]; tumor cells without p53 DNA contact mutation, FIG. 4B) was “without any obvious growth inhibitory effects”, the inhibition of proliferation [13] was “neither XAV939 nor Y-27632 inhibits proliferation” and the “effect on transforming ability (colony formation in soft agar)” value (“effect on transforming ability” for short) ([15]; MCF10a cells overexpressing YAP) was “specifically and markedly impaired the transforming ability”. For the same compound, the “effect on transforming ability” value ([15]; MCF10a cells overexpressing mutant HRAS) was “lack of effects”, the “effect on transforming ability” value ([15]; MCF10a cells overexpressing p53 R175H (conformational)) was “lack of effects” and the “effect on transforming ability” value ([15]; MCF10a cells overexpressing p53 R273H (DNA contact)) was “specifically and markedly impaired the transforming ability”.

For Verteporfin, the inhibition of proliferation [4, 16] was “inhibit proliferation” and the inhibition of proliferation [7] was “inhibited the proliferation; also recorded: inhibiting proliferation”.

— US11273151B2, “Methods of treating tumors and cancer, and identifying candidate subjects for such treatment” (ICAHN SCHOOL OF MEDICINE AT MOUNT SINAI, priority 2015, dated 2022)
